Literature values in US20230078230A1, “METHODS FOR THE PRODUCTION OF COMMITTED CARDIAC PROGENITOR CELLS” (FUJIFILM Cellular Dynamics, Inc., priority 2021, published 2023).

What was measured:
[1] = test system: ROCK1/ROCK2; details: ROCK1/ROCK2, competing with ATP
[2] = test system: pluripotent stem cell-derived cardiomyocytes

| IC50 [1] | SMILES | effect on contractile activity [2] |
| --- | --- | --- |
| 800 nM | C[C@@H](N)[C@H]1CC[C@H](C(=O)Nc2ccncc2)CC1 [Y-27632] | – |
| – | COc1ccc([C@@H]2Sc3ccccc3N(CCN(C)C)C(=O)[C@@H]2OC(C)=O)cc1 [diltiazem] | inhibits contractile activity in a dose-dependent manner |
| – | CC(C)NCC(O)c1ccc(O)c(O)c1 (stereo not shown) [isoprenaline] | positive chronotropic effect |
| – | CNC[C@H](O)c1cccc(O)c1 [phenylephrine] | positive chronotropic effect |
